Ten compounds from patent US9309242B2, “Substituted pyrido[2,3-b]pyrazines as FGFR kinase inhibitors” (priority 2011, dated 2016) can be followed below.

Where only a bound is given, the exact number is not on record here.

Experiment [1] relates to Ba/F3-FGFR3-transfected cells. In words: Ba/F3-FGFR3 (plus IL3) cellular proliferation assay, counterscreen with 10 ng/ml murine IL3. Format: cell-based. As to conditions: plus IL3 (10 ng/ml murine IL3, counterscreen); read-out: BAF3-FGFR3 (PLUS IL3) pIC50 (converted). Put shortly: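 With or without 10 ng/ml murine IL3, FGFR3-dependent Ba/F3 cells were treated 24 h with compound, then viability was gauged by Alamar Blue fluorescence after 4 h (ex 540/em 590 nm).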
(In general: The purpose of a counterscreen is to sort out artefacts and off-target activity.)

Experiment [2] deals with Ba/F3-KDR-transfected cells. As to the kind of experiment: Ba/F3-KDR (plus IL3) cellular proliferation assay, counterscreen with 10 ng/ml murine IL3. It is filed as cell-based. As to conditions: plus IL3 (10 ng/ml murine IL3, counterscreen); read-out: BAF3-KDR (PLUS IL3) pIC50 (converted). Put shortly:
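Proliferation read-out by Alamar Blue fluorescence (ex. 540 nm, em. 590 nm) after 4 hours, following 24 hours of compound treatment at 37° C of 20000 Ba/F3-KDR cells per well in RPMI-1640/10% FBS. Same protocol with 10 ng/ml murine IL3 serves as counterscreen.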

Experiment [3] concerns the target FGFR1 (h) (Homo sapiens, UniProt P11362). As to the kind of experiment: FGFR1 (enzymatic assay), TR-FRET. It is filed as biochemical. As to conditions: average values if tested multiple times, read-out: FGFR 1 pIC50 (converted). Background: Time-resolved FRET reads energy transfer from a long-lived donor to a nearby acceptor.
In experiment [4] the target is KDR (h) (Homo sapiens, UniProt P35968). In words: KDR (VEGFR2) (enzymatic assay), TR-FRET. It is filed as biochemical. As to conditions: average values if tested multiple times, read-out: VEGFR 2 (KDR) pIC50 (converted). Put shortly:
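TR-FRET readout (ex 340, em 620/655 nm) in RFU after EDTA stop with Eu-anti-phosphotyrosine and SA-XL665 for 60 min. The preceding 120-min room-temperature kinase step used 150 ng/ml KDR (h), 3 μM ATP, 500 nM biotinylated Flt3 peptide, MnCl2-containing HEPES buffer pH 7.5, 1% DMSO.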

Experiment [5] deals with Ba/F3-FGFR4-transfected cells (Homo sapiens, UniProt P22455). In words: Ba/F3-FGFR4 cellular proliferation assay, Alamar Blue. Format: cell-based. Put shortly: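 Proliferation is measured by resazurin reduction: after 24 h compound treatment at 37 °C in RPMI-1640/10% FBS, cells get Alamar Blue for 4 h before RFU read (540/590 nm). Each well holds 20000 Ba/F3-FGFR4-transfected cells.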

Experiment [6] has as its target FGFR2 (h) (Homo sapiens, UniProt P21802). As to the kind of experiment: FGFR2 (enzymatic assay), TR-FRET. It is filed as biochemical. As to conditions: enzymatic assay; average values if tested multiple times; read-out: FGFR 2 pIC50 (converted). Put shortly:
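Phosphorylation of 500 nM Btn-Flt3 by human FGFR2 (150 ng/ml) is measured at 0.4 μM ATP. The buffer is 50 mM HEPES pH 7.5 containing 6 mM MnCl2, 1 mM DTT, 0.1 mM Na3VO4 and 0.01% Triton-X-100, and compound is tested at 1% DMSO final.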

For experiment [7], the target named is T1, Ba/F3-FGFR1-transfected cells (Homo sapiens, UniProt P11362).
T1 construct: BAF3-FGFR1 (MIN IL3) pIC50; other: minus IL3
In words: Ba/F3-FGFR1 (minus IL3) cellular proliferation assay, Alamar Blue. It is filed as cell-based. Put shortly:
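Viability of transfected Ba/F3-FGFR1 cells (20000 per well, RPMI-1640 with 10% FBS and 2 mM L-glutamine) was scored by resazurin-based Alamar Blue reduction over 4 h, after 24 h treatment with compound at 37 °C under 5% CO2.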
In general terms: Alamar Blue is a resazurin reagent that responds to reducing activity.

Sequence of FGFR1 (h) (P11362 22-822): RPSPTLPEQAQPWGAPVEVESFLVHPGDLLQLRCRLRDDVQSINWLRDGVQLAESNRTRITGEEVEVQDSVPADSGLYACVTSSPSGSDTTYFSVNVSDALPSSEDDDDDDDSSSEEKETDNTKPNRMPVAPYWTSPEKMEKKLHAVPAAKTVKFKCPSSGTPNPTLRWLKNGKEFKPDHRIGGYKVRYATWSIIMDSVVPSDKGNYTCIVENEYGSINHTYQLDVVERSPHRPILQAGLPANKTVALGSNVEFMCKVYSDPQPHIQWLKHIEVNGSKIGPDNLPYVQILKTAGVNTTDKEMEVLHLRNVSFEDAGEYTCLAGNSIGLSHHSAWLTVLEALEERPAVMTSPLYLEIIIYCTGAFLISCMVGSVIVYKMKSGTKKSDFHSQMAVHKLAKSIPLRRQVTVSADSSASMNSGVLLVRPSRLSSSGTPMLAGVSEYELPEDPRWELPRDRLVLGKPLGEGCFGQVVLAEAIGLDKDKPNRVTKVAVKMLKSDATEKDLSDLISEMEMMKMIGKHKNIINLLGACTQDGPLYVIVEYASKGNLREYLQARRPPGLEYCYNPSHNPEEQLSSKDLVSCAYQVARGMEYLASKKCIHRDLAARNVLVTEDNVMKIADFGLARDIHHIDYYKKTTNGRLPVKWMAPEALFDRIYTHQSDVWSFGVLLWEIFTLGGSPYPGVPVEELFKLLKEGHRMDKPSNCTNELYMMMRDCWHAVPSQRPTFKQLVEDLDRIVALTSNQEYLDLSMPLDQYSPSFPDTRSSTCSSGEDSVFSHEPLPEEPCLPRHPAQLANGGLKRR
Sequence of KDR (h) (P35968 20-1356): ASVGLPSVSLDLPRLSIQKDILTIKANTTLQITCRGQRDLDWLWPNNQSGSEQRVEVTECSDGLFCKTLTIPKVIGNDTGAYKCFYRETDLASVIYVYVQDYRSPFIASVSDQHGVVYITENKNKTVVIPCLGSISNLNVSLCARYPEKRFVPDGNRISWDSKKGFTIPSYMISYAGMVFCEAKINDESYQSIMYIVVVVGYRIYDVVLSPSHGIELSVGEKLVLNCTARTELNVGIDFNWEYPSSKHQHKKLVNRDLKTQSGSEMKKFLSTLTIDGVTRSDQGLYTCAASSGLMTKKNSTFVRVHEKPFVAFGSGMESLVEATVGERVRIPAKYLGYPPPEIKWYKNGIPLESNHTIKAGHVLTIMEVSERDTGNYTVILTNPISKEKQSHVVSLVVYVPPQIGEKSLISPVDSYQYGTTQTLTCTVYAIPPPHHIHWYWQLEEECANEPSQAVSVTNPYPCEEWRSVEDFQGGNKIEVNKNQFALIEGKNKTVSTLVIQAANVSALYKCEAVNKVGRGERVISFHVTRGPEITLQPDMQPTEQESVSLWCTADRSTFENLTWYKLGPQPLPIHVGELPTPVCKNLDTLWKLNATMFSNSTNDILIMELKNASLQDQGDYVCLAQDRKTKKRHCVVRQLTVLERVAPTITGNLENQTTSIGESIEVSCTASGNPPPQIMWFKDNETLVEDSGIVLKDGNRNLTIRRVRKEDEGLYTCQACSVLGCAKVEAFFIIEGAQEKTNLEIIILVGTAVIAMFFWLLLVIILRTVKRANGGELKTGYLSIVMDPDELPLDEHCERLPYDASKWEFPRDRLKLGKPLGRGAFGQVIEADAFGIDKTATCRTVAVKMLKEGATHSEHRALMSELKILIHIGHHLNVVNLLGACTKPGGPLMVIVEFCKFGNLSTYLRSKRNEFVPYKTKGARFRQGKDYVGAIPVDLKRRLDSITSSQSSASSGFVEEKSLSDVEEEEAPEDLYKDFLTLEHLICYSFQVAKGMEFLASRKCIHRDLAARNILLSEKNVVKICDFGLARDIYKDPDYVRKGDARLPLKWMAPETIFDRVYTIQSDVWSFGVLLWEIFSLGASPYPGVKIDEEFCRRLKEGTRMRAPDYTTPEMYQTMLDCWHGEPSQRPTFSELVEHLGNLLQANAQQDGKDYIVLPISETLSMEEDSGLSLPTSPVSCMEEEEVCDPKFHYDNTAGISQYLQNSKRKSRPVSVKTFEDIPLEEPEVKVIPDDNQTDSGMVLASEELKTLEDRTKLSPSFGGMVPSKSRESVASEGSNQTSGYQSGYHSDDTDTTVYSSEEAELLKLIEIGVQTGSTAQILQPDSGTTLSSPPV
T1 sequence (P11362 whole entry, change not shown): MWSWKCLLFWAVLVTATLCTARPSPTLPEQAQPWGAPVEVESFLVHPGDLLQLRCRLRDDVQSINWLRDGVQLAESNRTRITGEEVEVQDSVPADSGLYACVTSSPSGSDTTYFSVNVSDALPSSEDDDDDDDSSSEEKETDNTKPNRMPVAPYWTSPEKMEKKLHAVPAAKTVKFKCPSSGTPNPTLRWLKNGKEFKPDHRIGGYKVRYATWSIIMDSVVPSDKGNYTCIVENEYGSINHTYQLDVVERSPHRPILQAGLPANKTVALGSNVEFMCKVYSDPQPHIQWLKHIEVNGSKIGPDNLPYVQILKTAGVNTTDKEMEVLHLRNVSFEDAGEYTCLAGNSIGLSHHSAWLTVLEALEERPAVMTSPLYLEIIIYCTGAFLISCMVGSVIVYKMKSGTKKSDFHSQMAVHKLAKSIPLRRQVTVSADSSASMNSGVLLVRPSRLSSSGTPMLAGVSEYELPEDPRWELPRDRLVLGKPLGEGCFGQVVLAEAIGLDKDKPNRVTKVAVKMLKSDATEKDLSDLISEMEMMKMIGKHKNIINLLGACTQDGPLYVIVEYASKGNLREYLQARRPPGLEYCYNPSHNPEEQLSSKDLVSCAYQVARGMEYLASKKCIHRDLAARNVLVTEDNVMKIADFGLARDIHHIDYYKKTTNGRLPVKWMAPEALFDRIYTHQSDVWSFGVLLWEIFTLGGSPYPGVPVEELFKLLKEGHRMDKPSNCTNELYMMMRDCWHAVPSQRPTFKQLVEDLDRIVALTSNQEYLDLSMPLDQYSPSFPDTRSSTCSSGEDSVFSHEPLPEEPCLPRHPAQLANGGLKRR
Sequence of FGFR2 (h) (P21802 22-821): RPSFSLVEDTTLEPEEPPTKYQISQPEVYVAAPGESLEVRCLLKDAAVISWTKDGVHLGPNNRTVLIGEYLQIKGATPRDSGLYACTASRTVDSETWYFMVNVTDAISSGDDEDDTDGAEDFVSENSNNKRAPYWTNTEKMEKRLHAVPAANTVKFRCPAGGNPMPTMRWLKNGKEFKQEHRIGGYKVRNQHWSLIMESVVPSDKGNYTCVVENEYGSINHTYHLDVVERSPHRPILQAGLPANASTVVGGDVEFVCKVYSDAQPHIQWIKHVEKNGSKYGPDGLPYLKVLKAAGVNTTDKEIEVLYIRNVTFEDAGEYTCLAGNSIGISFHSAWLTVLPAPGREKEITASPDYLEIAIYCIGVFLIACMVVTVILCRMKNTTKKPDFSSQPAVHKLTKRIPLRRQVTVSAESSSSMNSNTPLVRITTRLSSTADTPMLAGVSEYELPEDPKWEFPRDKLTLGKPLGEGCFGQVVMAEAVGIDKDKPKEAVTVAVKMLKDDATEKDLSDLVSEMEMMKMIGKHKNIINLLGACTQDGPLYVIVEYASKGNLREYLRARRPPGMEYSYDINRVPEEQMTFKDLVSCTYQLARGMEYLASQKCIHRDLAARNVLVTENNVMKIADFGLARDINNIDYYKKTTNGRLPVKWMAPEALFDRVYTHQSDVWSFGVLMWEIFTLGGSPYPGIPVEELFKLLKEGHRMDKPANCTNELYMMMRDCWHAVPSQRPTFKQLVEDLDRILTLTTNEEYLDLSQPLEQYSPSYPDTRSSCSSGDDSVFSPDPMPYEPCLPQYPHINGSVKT
Sequence of Ba/F3-FGFR4-transfected cells (P22455 whole entry, change not shown): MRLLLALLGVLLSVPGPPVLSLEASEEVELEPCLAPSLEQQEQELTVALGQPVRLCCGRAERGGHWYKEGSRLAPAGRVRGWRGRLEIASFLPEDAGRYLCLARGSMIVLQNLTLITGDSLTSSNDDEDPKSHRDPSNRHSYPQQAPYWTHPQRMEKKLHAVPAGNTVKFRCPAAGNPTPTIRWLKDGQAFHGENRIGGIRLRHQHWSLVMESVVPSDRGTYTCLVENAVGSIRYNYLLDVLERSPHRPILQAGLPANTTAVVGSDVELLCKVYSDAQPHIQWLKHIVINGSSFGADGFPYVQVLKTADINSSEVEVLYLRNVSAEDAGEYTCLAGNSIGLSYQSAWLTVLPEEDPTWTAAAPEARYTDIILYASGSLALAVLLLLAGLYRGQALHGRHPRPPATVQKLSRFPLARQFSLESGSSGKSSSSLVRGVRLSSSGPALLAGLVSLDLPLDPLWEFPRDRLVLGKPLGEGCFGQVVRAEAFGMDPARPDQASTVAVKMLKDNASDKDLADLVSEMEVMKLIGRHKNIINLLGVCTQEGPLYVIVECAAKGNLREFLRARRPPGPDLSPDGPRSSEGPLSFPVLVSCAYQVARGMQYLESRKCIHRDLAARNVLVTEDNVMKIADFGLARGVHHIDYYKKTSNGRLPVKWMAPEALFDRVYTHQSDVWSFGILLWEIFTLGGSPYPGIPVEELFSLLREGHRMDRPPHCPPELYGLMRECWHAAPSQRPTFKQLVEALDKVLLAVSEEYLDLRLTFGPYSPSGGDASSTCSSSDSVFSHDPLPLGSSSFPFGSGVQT

In the case of `CNCCN(c1ccc2ncc(-c3cnn(C)c3)nc2n1)c1c(Cl)ccc(OC)c1Cl` [Compound 83], the IC50 in experiment [1] was > 10000 nM; in experiment [2] it was > 10000 nM; in experiment [3], 75.9 nM; in experiment [4] it was > 1000 nM; in experiment [6], 49 nM. The “BAF3-FGFR4 pIC50” value in experiment [5] was <5. Besides, in experiment [7], the “BAF3-FGFR1 (MIN IL3) pIC50” value is reported as 5.36.
As to `CNCCn1/c(=N/c2c(Cl)ccc(OC)c2Cl)ccc2ncc(-c3cnn(C)c3)nc21` [Compound 84], the IC50 in experiment [1] is > 10000 nM; in experiment [2] it was > 10000 nM; in experiment [3], 224 nM; in experiment [4] it was > 1000 nM; in experiment [6], 126 nM. For the same compound, the “BAF3-FGFR4 pIC50” value in experiment [5] is <5. Also, the “BAF3-FGFR1 (MIN IL3) pIC50” value in experiment [7] was 5.15.
Take `COc1cc(OC)c(F)c(N(Cc2nc[nH]n2)c2ccc3ncc(-c4cnn(C)c4)nc3n2)c1F` [Compound 85]: the IC50 in experiment [1] is > 10000 nM; in experiment [2], > 10000 nM; in experiment [3], 1.02 nM; in experiment [4], 6.76 nM; in experiment [6] it was 2.04 nM. Moreover, the “BAF3-FGFR4 pIC50” value in experiment [5] is 7.66. In experiment [7], the “BAF3-FGFR1 (MIN IL3) pIC50” value is recorded as 8.28.
As for `COc1cc(OC)c(F)c(N(Cc2nc[nH]n2)c2ccc3ncc(-c4cnn(C)c4)nc3n2)c1` [Compound 86], the IC50 is > 10000 nM in experiment [1]; > 10000 nM in experiment [2]; 1.26 nM in experiment [3]; 7.59 nM in experiment [4]; 1.41 nM in experiment [6]. Moreover, the “BAF3-FGFR4 pIC50” value in experiment [5] stood at 7.33. In addition, the “BAF3-FGFR1 (MIN IL3) pIC50” value in experiment [7] stood at 7.74.
Take `COc1ccc(Cl)c(/N=c2\ccc3ncc(-c4cnn(C)c4)nc3n2CC2CCC(=O)N2)c1Cl` (stereo not shown) [Compound 92]: the IC50 in experiment [1] was > 10000 nM; in experiment [2], > 10000 nM; in experiment [3], 61.7 nM; in experiment [4] it was 309 nM; in experiment [6], 30.2 nM. In experiment [5], the “BAF3-FGFR4 pIC50” value was <5. Moreover, in experiment [7], the “BAF3-FGFR1 (MIN IL3) pIC50” value is listed as <5.
On to `COc1cc(O)cc(N(Cc2ncc[nH]2)c2ccc3ncc(-c4cnn(C)c4)nc3n2)c1F` [Compound 95], for which the IC50 in experiment [1] was > 9330 nM; in experiment [2], > 10000 nM; in experiment [3], 0.417 nM; in experiment [4] it was 2.75 nM; in experiment [6] it was 0.955 nM. Moreover, in experiment [5], the “BAF3-FGFR4 pIC50” value was 8.03. Further, in experiment [7], the “BAF3-FGFR1 (MIN IL3) pIC50” value was 8.83.
For the compound `COc1cc(OC)c(Cl)c(N(C[C@H]2CCC(=O)N2)c2ccc3ncc(-c4cnn(C)c4)nc3n2)c1Cl` [Compound 97], the IC50 was > 10000 nM in experiment [1]; > 10000 nM in experiment [2]; 5.25 nM in experiment [3]; 95.5 nM in experiment [4]; 6.61 nM in experiment [6]. Further, the “BAF3-FGFR4 pIC50” value in experiment [5] was 5.95. Also, in experiment [7], the “BAF3-FGFR1 (MIN IL3) pIC50” value is recorded as 6.80.
Consider `COc1cc(OC)c(Cl)c(N(Cc2ncc[nH]2)c2ccc3ncc(-c4cnn(C)c4)nc3n2)c1Cl` [Compound 98], for which the IC50 in experiment [1] is > 10000 nM; in experiment [2] it was > 10000 nM; in experiment [3], ~3.89 nM; in experiment [4] it was 16.6 nM; in experiment [6], 4.37 nM. Besides, the “BAF3-FGFR4 pIC50” value in experiment [5] was 6.56. The “BAF3-FGFR1 (MIN IL3) pIC50” value in experiment [7] amounted to 7.72.
For `COc1cc(OC)c(F)c(N(Cc2ncc[nH]2)c2ccc3ncc(-c4cnn(Cc5ncc[nH]5)c4)nc3n2)c1` [Compound 100], the IC50 in experiment [1] is > 10000 nM; in experiment [2], > 10000 nM; in experiment [3], 1.29 nM; in experiment [4], 8.13 nM; in experiment [6], 2.14 nM. In experiment [5], the “BAF3-FGFR4 pIC50” value is reported as 6.99. In addition, the “BAF3-FGFR1 (MIN IL3) pIC50” value in experiment [7] stood at 8.02.
Consider `COc1cc(O)cc(N(Cc2ncc[nH]2)c2ccc3ncc(-c4cnn(C)c4)nc3n2)c1` [Compound 103], for which the IC50 was > 10000 nM in experiment [1]; > 10000 nM in experiment [2]; 0.339 nM in experiment [3]; 5.37 nM in experiment [4]; 0.741 nM in experiment [6]. Further, the “BAF3-FGFR4 pIC50” value in experiment [5] is reported as ~7.43. The “BAF3-FGFR1 (MIN IL3) pIC50” value in experiment [7] worked out at 8.31.
